One experiment deals with MCF7. Description: cells. Type of experiment: functional, cell-based. The settings on record: Homo sapiens.
The subject of another experiment is K562. Put plainly: cells. The following applies: Homo sapiens. Type of experiment: functional, cell-based.

SMILES strings stand for the structures.

The results in this text go back to ChEMBL document CHEMBL1136199, “2,6,8,9-tetrasubstituted purines as new CDK1 inhibitors” (Bioorg Med Chem Lett, 2003).

Description for K562: Cytotoxic property against K562 cell line was determined
Description for MCF7: Cytotoxic property against MCF-7 cell line was determined

The IC50 is the concentration at which inhibition is half-maximal. Take `CCC(CO)Nc1nc(NCc2ccccc2)c2nc(Cl)n(C(C)C)c2n1` (stereo not given): the figures for the IC50 in the experiment with MCF7 and with K562 were 54 µM and 91 µM, respectively.
Take `CCC(CO)Nc1nc(NCc2ccccc2)c2nc(N)n(C(C)C)c2n1` (stereo not given): the values for the IC50 in the experiment with MCF7 and in the experiment with K562 were 60 µM and 80 µM, respectively.
Turning to `CCC(CO)Nc1nc(NCc2ccccc2)c2nc(C)n(C(C)C)c2n1` (stereo not given), the IC50 in the experiment with MCF7 worked out at 94 µM; in the experiment with K562, 58 µM.
Compound `CCC(CO)Nc1nc(NCc2ccccc2)c2nc(O)n(C(C)C)c2n1` (stereo not given) returned an IC50 in the experiment with K562 of 74 µM.
Regarding `CCC(CO)Nc1nc(NCc2cccc(O)c2)c2nc(Cl)n(C(C)C)c2n1` (stereo not given), the IC50 in the experiment with MCF7 and with K562 was 27 µM each time.
Take `CC(C)n1cnc2c(Nc3cccc(Cl)c3)nc(NC3CCC(N)CC3)nc21` (stereo not given): the IC50 in the experiment with MCF7 turned out to be 1.1 µM; with K562, 1.4 µM.
In the case of `CC(C)C(CO)Nc1nc(Nc2cccc(Cl)c2)c2nc(Cl)n(C(C)C)c2n1` (stereo not given), the IC50 in the experiment on MCF7 worked out at 45 µM; in the experiment on K562, 21 µM.
On the same counts, the results for `Cc1nc2c(Nc3cccc(Cl)c3)nc(NC3CCC(N)CC3)nc2n1C(C)C` (stereo not given) are 8 µM and 3.5 µM.
The matching figures for `CCCOc1nc2c(NCc3ccccc3)nc(NC(CC)CO)nc2n1C(C)C` (stereo not given): 50 µM and 20 µM.
On the same counts, the results for `CCC(CO)Nc1nc(NCc2ccccc2)c2nc(NCCCO)n(C(C)C)c2n1` (stereo not given) are 40 µM and 30 µM.
As for `CCC(CO)Nc1nc(NCc2ccccc2)c2nc(Br)n(C(C)C)c2n1` (stereo not given), the IC50 in the experiment on MCF7 came out at 53 µM; with K562 it was 27 µM.
For the compound `CCC(CO)Nc1nc(NCc2ccccc2)c2nc([N+](=O)[O-])n(C(C)C)c2n1` (stereo not given), the half-maximal inhibitory concentration (IC50) in the experiment with MCF7 and in the experiment with K562 was 117 µM in each case.
In the case of `CCC(CO)Nc1nc(NCc2ccccc2)c2nc(S)n(C(C)C)c2n1` (stereo not given), the figures for the IC50 with MCF7 and in the experiment on K562 were 55 µM and 154 µM, respectively.
